{"source": "patent US20250144172A1", "about": "“ANTI-FIBROTIC SIALIDASE INHIBITOR COMPOUNDS AND METHODS OF USE” (The Texas A&M University System, priority 2016, published 2025)", "key": {"human PBMC [1]": {"tested_on": "human PBMC", "experiment": "TGF-β1 accumulation by human PBMC (antibody staining and ELISA)", "type": "cell-based", "conditions": "inhibitor 3 μM; sialidases 200 ng/ml; 5 days; ELISA", "protocol": "To determine if sialidases might cause cells to accumulate intracellular and extracellular TGF-β1, human PBMC were cultured with sialidases in 96 well plates at 5×10^5 cells/ml and 200 μl/well in FibroLife serum-free medium for five days, then air dried. The levels of TGF-β1 in or on the cells was detected by staining with an antibody against TGF-β1. Photomicrographs were analyzed by counting stained cells (FIG. 7B) and quantifying staining intensity using ImageJ (FIG. 7C).\nPBMC were cultured in 96 well plates at 5×10^5 cells/ml and 200 μl/well in FibroLife serum-free medium. When the cells were plated, recombinant human sialidases were added to final concentrations of 200 ng/ml, and DANA or oseltamivir were added to 3 μM. After 5 days, culture supernatants were analyzed using a TGF-β1 ELISA kit (R&D Systems)."}, "[2]": {"tested_on": "mice with bleomycin-induced fibrosis", "experiment": "mouse bleomycin model of pulmonary fibrosis", "type": "in vivo", "conditions": "day 21", "protocol": "The successful aspiration of bleomycin into the lungs was confirmed by listening for a crackling noise heard after the aspiration. Mice were weighed daily, and euthanized using CO2 following NIH guidelines at day 21 after bleomycin aspiration. The experiment was performed in accordance with the recommendations in the Guide for the Care and Use of Laboratory Animals of the National Institutes of Health. The Texas A&M University Animal Use and Care Committee approved the protocol.\nThe BALs were clarified by centrifugation at 500×g for 10 minutes, and the supernatants were transferred to Eppendorf tubes. The supernatants were flash frozen with liquid nitrogen, and stored at −20° C. until further use.\nAfter collection of BAL fluid, mouse lungs were inflated with prewarmed Optimal Cutting Temperature (OCT) embedding medium (VWR, Radnor, PA) and then embedded in OCT, frozen on dry ice, and then stored at −80° C. 6-micron cryosections of mouse lungs were mounted on Superfrost Plus® microscope slides (VWR). The sections on the slides were allowed to air-dry for 24-48 hours. The slides were then fixed in acetone at room temperature for 20 minutes and air-dried for 10 minutes.\nThen, starting 24 hours after bleomycin had been administered, the mice were given daily intraperitoneal injections of 10 mg/kg DANA (Calbiochem) in PBS or 10 mg/kg oseltamivir (Sigma) in PBS. Both inhibitors are quite polar and thus probably remain in the extracellular space. Assuming 2 ml of extracellular space in a 20 gram mouse, these doses would then be ˜3 μM. At day 21, mice were sacrificed and BAL and cryosections of lungs were obtained as described for Example 3. The experiment was performed in accordance with the recommendations in the Guide for the Care and Use of Laboratory Animals of the National Institutes of Health. The Texas A&M University Animal Use and Care Committee approved the protocol.\nTreatment of mice with oropharyngeal bleomycin results in an initial inflammation, and then a fibrosis that has begun by day 10 after bleomycin treatment. To determine if sialidase inhibitors decrease fibrosis when treatment starts after the initial inflammation stage and when fibrosis is present, mice were treated with oropharyngeal bleomycin to induce symptoms of pulmonary fibrosis as described above. Then, starting 10 days after bleomycin had been administered, the mice were given daily intraperitoneal injections of 10 mg/kg DANA (Calbiochem) in PBS or 10 mg/kg oseltamivir (Sigma) in PBS. At day 21, mice were sacrificed and BAL and cryosections of lungs were obtained as described above. The experiment was performed in accordance with the recommendations in the Guide for the Care and Use of Laboratory Animals of the National Institutes of Health. The Texas A&M University Animal Use and Care Committee approved the protocol.\nTo determine if sialidase inhibitors could also reduce TGF-β1 levels in mice, mice were treated with bleomycin or saline, then injected daily with saline, DANA or oseltamivir starting at day 10 after bleomycin treatment, as described in Example 9. The mice were euthanized at day 21 and sections of lung tissue were stained for TGF-β1. Results are presented in FIG. 11A and are representative of results for three mice per group."}, "human sialidases": {"tested_on": "human sialidases", "conditions": "all four human sialidases; carboxylate form; cited from earlier work"}, "murine sialidases": {"tested_on": "murine sialidases", "conditions": "mice, cited from earlier work"}, "[3]": {"molecular_target": "LPS-induced mouse macrophage sialidase activity", "conditions": "cited from earlier work"}, "A549 cells": {"tested_on": "A549 cells", "experiment": "sialidase staining of A549 cells cultured with TGF-β1", "type": "cell-based, human", "conditions": "10 ng/ml TGF-β1, three days", "protocol": "(§1) TGF-β1 is strongly associated with fibrosis so its effects on sialidase expression were determined. Human lung adenocarcinoma cell line A549, human small airway epithelial cells, human pulmonary fibroblasts, and human immune cells were cultured with or without 10 ng/ml of recombinant active TGF-β1, which is a standard concentration used in tissue culture experiments. After three days for A549 cells, airway epithelial cells, and fibroblasts, or five days for immune cells, the cells were stained with antibodies against sialidases."}, "[4]": {"tested_on": "human small airway epithelial cells", "experiment": "sialidase staining of human small airway epithelial cells cultured with TGF-β1", "type": "cell-based", "conditions": "10 ng/ml TGF-β1, three days", "protocol": "as §1"}, "[5]": {"tested_on": "human pulmonary fibroblasts", "experiment": "human pulmonary fibroblasts cultured with TGF-β1", "type": "cell-based", "conditions": "10 ng/ml TGF-β1, three days", "protocol": "as §1"}, "human PBMC [6]": {"tested_on": "human PBMC", "experiment": "sialidase staining of human PBMC cultured with TGF-β1", "type": "cell-based", "conditions": "10 ng/ml TGF-β1, five days", "protocol": "as §1"}, "[7]": {"conditions": "10 mg/kg daily i.p. starting at day 10"}}, "note": "Where two headings read alike, the source gives them in different places.", "data": [{"molecule": "CCC(CC)[C@H](NC(C)=O)[C@@H]1[C@H](O)[C@@H](C(=O)O)C[C@H]1N=C(N)N", "note": "[Compound 58, (1S,2S,3S,4R)-3-[(1S)-1-acetamido-2-ethyl-butyl]-4-(diaminomethylideneamino)-2-hydroxy-cyclopentane-1-carboxylic acid]", "values": [{"measurement": "effects of NEU2 and NEU3 on extracellular TGF-β1", "setting": "human PBMC [1]", "result": "blocked"}, {"measurement": "collagen deposition in the lungs (Sirius red)", "setting": "[2]; 10 mg/kg daily i.p. starting 24 hours after bleomycin", "result": "reduced"}, {"measurement": "collagen deposition in the lungs (Sirius red)", "setting": "[2]; [7]", "result": "reduced"}, {"measurement": "total protein in BAL", "setting": "[2]; [7]", "result": "attenuated"}, {"measurement": "TGF-β1 levels in lung tissue (staining)", "setting": "[2]; daily injection starting at day 10", "result": "reduced TGF-β1 levels"}, {"measurement": "inhibitor of human sialidases", "setting": "human sialidases", "result": "poor inhibitor"}, {"measurement": "inhibitor of murine sialidases", "setting": "murine sialidases; listed as Oseltamivir", "result": "potent sialidase inhibitor in mice"}, {"measurement": "inhibitor of murine sialidases", "setting": "murine sialidases; listed as oseltamivir", "result": "potent inhibitor"}, {"measurement": "IC50", "setting": "[3]", "result": 1000, "unit": "nM"}]}, {"molecule": "TGF-β1: recombinant active TGF-β1", "values": [{"measurement": "sialidase levels (antibody staining)", "setting": "A549 cells", "result": "increase levels of NEU3"}, {"measurement": "sialidase levels (antibody staining)", "setting": "[4]", "result": "increase levels of NEU3, and slightly increased levels of NEU1"}, {"measurement": "proliferation of human pulmonary fibroblasts", "setting": "[5]", "result": "increased the proliferation"}, {"measurement": "sialidase levels (antibody staining)", "setting": "[5]; pulmonary fibroblasts", "result": "increase levels of NEU3"}, {"measurement": "sialidase levels (antibody staining)", "setting": "human PBMC [6]", "result": "increased levels of NEU2 and NEU3 in some cells"}]}]}
